Where a SMILES comes first, the peptide text is derived from it. [ ]: non-standard residue; d: D form. The star is where a group is joined. BI2536acyl = CC[C@@H]1C(=O)N(C)c2cnc(Nc3ccc(C(=O)*)cc3OC)nc2N1C1CCCC1; His(π-(CH2)8Ph) = N[C@@H](Cc1cncn1CCCCCCCCc1ccccc1)C(=O)O; pT = C[C@@H](OP(=O)(O)O)[C@H](N)C(=O)O; AEEA = NCCOCCOCC(=O)O
Assays:
[1] = biological target: T1, Serine/threonine-protein kinase PLK1 (Homo sapiens, UniProt P53350); test: Displacement of biotin-Ahx-PMQSpTPLN from myc-tagged Plk1 in cytosolic lysates (unknown origin) preincubated for 1 hr followed by biotinylated probe addition and measured after 1 hr by ELISA; format: subcellular, Cytosol
T1 sequence (P53350 whole entry): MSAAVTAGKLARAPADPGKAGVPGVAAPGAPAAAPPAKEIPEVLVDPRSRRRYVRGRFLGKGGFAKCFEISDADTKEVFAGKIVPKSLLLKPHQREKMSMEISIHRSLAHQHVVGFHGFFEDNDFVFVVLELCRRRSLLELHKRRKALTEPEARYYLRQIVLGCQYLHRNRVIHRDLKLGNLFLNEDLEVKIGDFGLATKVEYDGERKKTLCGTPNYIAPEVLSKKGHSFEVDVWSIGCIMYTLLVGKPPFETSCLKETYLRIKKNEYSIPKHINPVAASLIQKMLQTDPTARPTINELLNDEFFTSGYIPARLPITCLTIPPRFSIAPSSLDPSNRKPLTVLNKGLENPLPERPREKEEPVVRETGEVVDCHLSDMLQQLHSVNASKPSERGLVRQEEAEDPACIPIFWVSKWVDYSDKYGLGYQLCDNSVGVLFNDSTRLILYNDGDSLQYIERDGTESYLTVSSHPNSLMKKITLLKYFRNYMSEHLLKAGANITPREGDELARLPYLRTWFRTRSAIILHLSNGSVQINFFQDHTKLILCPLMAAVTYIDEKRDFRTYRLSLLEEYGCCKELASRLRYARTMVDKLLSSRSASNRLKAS

[2] = biological target: T1, Serine/threonine-protein kinase PLK1; test: Displacement of FITC-miniPEG-FDPPLHSpTA from full length Plk1 (unknown origin) preincubated for 30 mins followed by fluorescent probe addition and measured after 30 mins by fluorescence polarization assay

SMILES	IC50 [1]	IC50 [2]
CC[C@@H]1C(=O)N(C)c2cnc(Nc3ccc(C(=O)NCCCC[C@H](NC(C)=O)C(=O)NCCOCCOCC(=O)NCCOCCOCC(=O)NCCOCCOCC(=O)NCCOCCOCC(=O)N4CCC[C@H]4C(=O)N[C@@H](CC(C)C)C(=O)N[C@@H](Cc4c[nH]cn4)C(=O)N[C@@H](CO)C(=O)N[C@H](C(N)=O)[C@@H](C)O)cc3OC)nc2N1C1CCCC1 (Ac-K(BI2536acyl)[AEEA][AEEA][AEEA][AEEA]PLHST-NH2)	Not_active	Not_active
CC[C@@H]1C(=O)N(C)c2cnc(Nc3ccc(C(=O)NCCCC[C@H](NC(C)=O)C(=O)NCCOCCOCC(=O)NCCOCCOCC(=O)NCCOCCOCC(=O)NCCOCCOCC(=O)N4CCC[C@H]4C(=O)N[C@@H](CC(C)C)C(=O)N[C@@H](Cc4cncn4CCCCCCCCc4ccccc4)C(=O)N[C@@H](CO)C(=O)N[C@H](C(N)=O)[C@@H](C)O)cc3OC)nc2N1C1CCCC1 (Ac-K(BI2536acyl)[AEEA][AEEA][AEEA][AEEA]PL[His(π-(CH2)8Ph)]ST-NH2)	Not_active	Not_active
CC[C@@H]1C(=O)N(C)c2cnc(Nc3ccc(C(=O)NCCCC[C@H](NC(C)=O)C(=O)NCCOCCOCC(=O)N[C@@H](Cc4cncn4CCCCCCCCc4ccccc4)C(=O)N[C@@H](CO)C(=O)N[C@H](C(N)=O)[C@@H](C)OP(=O)(O)O)cc3OC)nc2N1C1CCCC1 (Ac-K(BI2536acyl)[AEEA][His(π-(CH2)8Ph)]S[pT]-NH2)	Not_active	
CC[C@@H]1C(=O)N(C)c2cnc(Nc3ccc(C(=O)NCCCC[C@H](NC(=O)COCCOCCNC(=O)[C@@H](NC(=O)[C@H](CO)NC(=O)[C@H](Cc4cncn4CCCCCCCCc4ccccc4)NC(C)=O)[C@@H](C)OP(=O)(O)O)C(N)=O)cc3OC)nc2N1C1CCCC1 (Ac-[His(π-(CH2)8Ph)]S[pT][AEEA]K(BI2536acyl)-NH2)	Not_active	

More lines, now with the values ahead:

IC50 [1]	IC50 [2]	SMILES
Not_active	Not_active	CC[C@@H]1C(=O)N(C)c2cnc(Nc3ccc(C(=O)NCCCC[C@H](NC(=O)COCCOCCNC(=O)COCCOCCNC(=O)COCCOCCNC(=O)COCCOCCNC(=O)[C@@H](NC(=O)[C@H](CO)NC(=O)[C@H](Cc4c[nH]cn4)NC(=O)[C@H](CC(C)C)NC(=O)[C@@H]4CCCN4C(C)=O)[C@@H](C)O)C(N)=O)cc3OC)nc2N1C1CCCC1 (Ac-PLHST[AEEA][AEEA][AEEA][AEEA]K(BI2536acyl)-NH2)
Not_active	Not_active	CC[C@@H]1C(=O)N(C)c2cnc(Nc3ccc(C(=O)NCCCC[C@H](NC(=O)COCCOCCNC(=O)COCCOCCNC(=O)COCCOCCNC(=O)COCCOCCNC(=O)[C@@H](NC(=O)[C@H](CO)NC(=O)[C@H](Cc4cncn4CCCCCCCCc4ccccc4)NC(=O)[C@H](CC(C)C)NC(=O)[C@@H]4CCCN4C(C)=O)[C@@H](C)O)C(N)=O)cc3OC)nc2N1C1CCCC1 (Ac-PL[His(π-(CH2)8Ph)]ST[AEEA][AEEA][AEEA][AEEA]K(BI2536acyl)-NH2)
